Laboratory results published in US20240230620A1, “CURRENT AND […]” (National Taiwan University, priority 2023, published 2024).
Like-named read-outs stand apart in the source and are kept apart here.

Experiments:
Gα subunit = conditions: fluorescence
Description: The intrinsic tryptophan in the switch-II region serves as a fluorescent probe for examining the activity of Ga subunit. In the AlF4^− dependent activation assay, the AlF4^− bound to GDP mimics the transition state of GTP hydrolysis, stimulating the conformational change of the switch-II region and enhancing the fluorescence quantum yields of intrinsic Trp. This principle was also applied to GDP/GTP auto-exchange, but it was conducted using of GTPγS, a non-hydrolyzable GTP analog. In the time-course of Trp fluorescence measurement, the excitation and emission wavelengths were 280 and 340 nm, respectively, and both slits are 10 nm. For AlF4^− dependent activation assay, 20 μL 20 μM Ga protein was first added into a cuvette filled with 1.5 mL buffer G without BME and PMSF at 50 s. Then 40 μL 500 mM NaF and 20 μL 10 mM AlCl3 were added simultaneously at 100 s. For GDP/GTP auto-exchange, the experiments were conducted as described above using 1 μM GTPγS instead of AlF4^−.
The effectiveness of Gα inactivation using EDTA was analyzed by fluorescence (FIG. 23(A)).

AtGPA1 [1] = target: T1, AtGPA1 (Arabidopsis thaliana, UniProt P18064); assay: GTPγS saturation binding analysis of AtGPA1 (photocurrent and fluorescence); conditions: percent of maximum fitted to a hyperbola, preliminary test
T1 sequence (P18064 1-383): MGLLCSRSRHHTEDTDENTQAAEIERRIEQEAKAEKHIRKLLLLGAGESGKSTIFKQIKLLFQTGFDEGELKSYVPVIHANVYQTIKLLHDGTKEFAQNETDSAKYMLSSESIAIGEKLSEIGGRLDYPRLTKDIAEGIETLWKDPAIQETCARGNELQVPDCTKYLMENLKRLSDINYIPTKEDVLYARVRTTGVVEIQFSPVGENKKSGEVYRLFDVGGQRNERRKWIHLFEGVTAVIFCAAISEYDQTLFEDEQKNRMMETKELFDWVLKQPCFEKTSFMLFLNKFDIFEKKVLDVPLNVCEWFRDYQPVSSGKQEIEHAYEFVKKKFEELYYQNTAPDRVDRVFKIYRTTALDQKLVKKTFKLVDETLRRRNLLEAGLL
Description: The photo-induced-voltage-generating solution chamber was filled with 20 mg/mL HEBR solution in the dual chamber format. The sample to be tested was added to the sample chamber at a volume of 100-150 μL. The photo-induced-voltage-generating solution chamber was illuminated by a 10-Hz, 532-nm flash laser (Nd-YAG laser, 6 ns pulse, pump energy 21 J) via a central control unit (Raspberry Pi 400) to generate the alternating photocurrent. The data recording system was identical to steady-state photocurrent measurement. Each data was collected at a single trigger event. The laser was triggered at 0 s and stopped at 40 s with each 5 s pre-trigger and post-illumination. Then, the raw data were recorded in a .csv file and processed by the Python code. The processed data were exported to an excel file for further analysis.
After the successful measurement of the interaction of Gα with its ligand, the present device was extended to measure the KD of Gα and its ligands. In preliminary test, the plant Arabidopsis thaliana Gα AtGPA1 and a non-hydrolyzable GTP analog GTPγS were adopted. […] The AtGPA1 was purified and analyzed the activity using the identical method in mammalian Gα purification.
Referring to FIG. 24, to calculate the KD of AtGPA1 and GTPγS, both photocurrent and fluorescence were measured. […]

AtGPA1 [2] = target: T1, AtGPA1; conditions: derived from radioactive GTPγS assay; read-out: KD of AtGPA1 and GTPγS, previous study; cited from earlier work

With `O=C(O)CN(CCN(CC(=O)O)CC(=O)O)CC(=O)O` [EDTA] the Gα subunit inactivation (Gα subunit; 20 μM Gα subunit at 100 mM EDTA) was “almost inactivated” and the “reduction of Gα subunit activity” value (Gα subunit; 20 μM Gα subunit in 10 mM EDTA) was “more than 60%”.

For `Nc1nc2c(ncn2[C@@H]2O[C@H](COP(=O)(O)OP(=O)(O)OP(O)(O)=S)[C@@H](O)[C@H]2O)c(=O)[nH]1` [GTPγS], the Kd (AtGPA1 [1]) is given as ~1.5 nM and the Kd (AtGPA1 [2]) is given as 0.8 nM.
